Results from article PMC6832141, “Synthesis and Cyclooxygenase Inhibition of Sulfonamide-Substituted (Dihydro)Pyrrolo[3,2,1-hi]indoles and Their Potential Prodrugs” (Molecules, 2019).

Experiments:
human COX-2 = biological target: T1, human COX-2 (Homo sapiens, UniProt P35354); experiment: COX Fluorescent Inhibitor Screening Assay Kit (Cayman 700100), COX-2; format: biochemical; conditions: for SI (selectivity index): SI = IC50 (COX-1)/IC50 (COX-2); for IC50: human COX-2, values marked ** : compounds were screened at a concentration of 100 µM
T1 construct: purchased Cayman Chemical 700100
T1 sequence (P35354 18-604): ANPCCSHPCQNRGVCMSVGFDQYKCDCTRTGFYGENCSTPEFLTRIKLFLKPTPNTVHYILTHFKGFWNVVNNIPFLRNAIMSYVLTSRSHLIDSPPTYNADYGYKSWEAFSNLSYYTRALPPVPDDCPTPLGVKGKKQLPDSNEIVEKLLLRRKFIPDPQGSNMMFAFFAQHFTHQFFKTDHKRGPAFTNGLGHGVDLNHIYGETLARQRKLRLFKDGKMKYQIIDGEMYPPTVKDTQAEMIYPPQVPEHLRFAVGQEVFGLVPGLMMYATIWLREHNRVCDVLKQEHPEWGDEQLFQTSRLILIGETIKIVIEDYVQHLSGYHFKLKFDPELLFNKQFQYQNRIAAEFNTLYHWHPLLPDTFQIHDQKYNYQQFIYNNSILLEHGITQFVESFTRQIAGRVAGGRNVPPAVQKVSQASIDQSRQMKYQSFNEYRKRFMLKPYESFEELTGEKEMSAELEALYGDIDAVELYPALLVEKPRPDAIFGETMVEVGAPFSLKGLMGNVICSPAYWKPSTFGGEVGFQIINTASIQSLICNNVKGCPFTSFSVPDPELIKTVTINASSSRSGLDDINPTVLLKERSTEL

ovine COX-1 = biological target: T2, ovine COX-1 (Ovis aries, UniProt P05979); experiment: COX Fluorescent Inhibitor Screening Assay Kit (Cayman 700100), COX-1; format: biochemical; conditions: values marked ** : compounds were screened at a concentration of 100 µM
T2 construct: purchased Cayman Chemical 700100
T2 sequence (P05979 25-600): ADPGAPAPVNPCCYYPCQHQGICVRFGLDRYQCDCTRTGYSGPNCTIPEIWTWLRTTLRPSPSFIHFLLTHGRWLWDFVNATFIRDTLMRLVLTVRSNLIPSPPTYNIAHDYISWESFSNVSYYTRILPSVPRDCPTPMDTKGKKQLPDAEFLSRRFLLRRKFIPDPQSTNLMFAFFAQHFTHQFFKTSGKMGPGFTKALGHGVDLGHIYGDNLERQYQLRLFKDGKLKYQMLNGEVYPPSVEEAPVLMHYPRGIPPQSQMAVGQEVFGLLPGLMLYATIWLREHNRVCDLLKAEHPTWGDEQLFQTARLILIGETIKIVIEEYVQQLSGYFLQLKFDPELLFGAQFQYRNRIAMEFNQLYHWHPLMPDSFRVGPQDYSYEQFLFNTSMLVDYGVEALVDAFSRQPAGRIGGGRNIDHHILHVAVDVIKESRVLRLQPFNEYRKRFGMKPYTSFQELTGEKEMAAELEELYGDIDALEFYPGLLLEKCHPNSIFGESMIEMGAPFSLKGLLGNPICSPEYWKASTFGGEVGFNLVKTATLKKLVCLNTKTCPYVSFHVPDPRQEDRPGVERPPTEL

[1] = Lipophilicity, logD7.4 by HPLC method (Donovan and Pescatore); format: physicochemical; conditions: HPLC column ODP-50 4B (Shodex Asahipak 50 × 4.6 mm); pH 7.4, HPLC system 2, MeOH/PBS gradient
Protocol: The lipophilicity of all synthesized compounds was determined as logD7.4HPLC value (Table 1) using an HPLC method originally described by Donovan and Pescatore.
Column chromatography was performed using silica gel (mesh size 40–63 µm). Thin-layer chromatography (TLC) was performed on silica gel F-254 aluminum plates and visualized using UV (254 nm/366 nm). Analytical HPLC analysis was carried out with the following systems: (system 1) Agilent 1200 HPLC (Santa Clara, CA, USA; pump G1311A, autosampler G1329A, column oven G1316A, degasser G1322A, UV detector G1315D, γ detector Gabi Star (Raytest), Luna C18 column (Phenomenex, 250 × 4.6 mm), flow rate = 1 mL/min, isocratic eluent (MeCN/0.1% TFA in H2O 70/30 (v/v)); (system 2) Agilent 1100 HPLC (Santa Clara, CA, USA; binary pump G1312A, autosampler G1313A, column oven G1316A, degasser G1322A, UV detector G1314A, γ detector Gabi Star (Raytest, Straubenhardt, Germany); column ODP-50 4B (Shodex Asahipak 50 × 4.6 mm); eluent: MeOH/PBS (10 mM, pH 7.4) gradient t0 min 30/70 - t25 min 95/5 - t27 min 95/5 - t28 min 30/70 - t40 min 30/70, flow rate = 0.6 mL/min; (system 3) waters UPLC I-Class (Milford, MA, USA; binary gradient pump BSM, autosampler FTN, column manager CM, and diode array detector PDAeλ coupled to Waters Xevo TQ-S), column Aquity UPLC® BEH C18 column (waters, 100 × 2.1 mm, 1.7 µm, 130 Å), eluent: (A): 0.1% acetic acid in MeCN/MeOH 1/1/(B): 0.1% acetic acid in H2O; flow rate 0.4 mL/min), gradient: t0 min 45/55 - t0.5 min 45/55 - t5.5 min 95/5 - t7.0 min 95/5 - t8.0 min 45/55 – t8.5 min 45/55; (system 4) column (Kinetex C-18 (Phenomenex 50 × 2.1 mm, 1.7 µm, 100 Å), Shimadzu Nexera X2 UHPLC system (Kyoto, Japan; degasser DGU-20A3R and DGU-20A5R, pump LC-30AD, autosampler SIL-30AC, column oven CTO-20AC with two column switching valves FCV-14AH, diode array detector SPD-M30A, γ detector Gabi Star (Raytest, Straubenhardt, Germany), communication bus module CBM-20A), eluent: (A): MeCN, (B): 0.1% trifluoroacetic acid in H2O; flow rate 0.5 mL/min), gradient: t0 min 25/75 - t0.3 min 25/75 - t4.0 min 75/25 - t4.5 min 95/5 - t5.5 min 95/5 - t6.0 min 25/75 – t7.5 min 25/75. The products were monitored by an UV detector at 254 nm and purity of all compounds exceeded 95% as determined by analytical HPLC analysis (system 1 or system 3), unless otherwise stated. Semi-preparative HPLC was performed using the following system: column (C-18 Jupiter Proteo (Phenomenex 250 × 21.1 mm, 4 µm, 90 Å), Shimadzu prominence modular HPLC system (Kyoto, Japan; degasser DGU-20A5R, 2× pump LC-20AR, autosampler SIL-20AC HT, column oven CTO-20AC with column switching valve, diode array detector SPD-M20A, fluorescence detector RF-20A, and fraction collector FRC-10A, communication bus module CBM-20A), isocratic eluent 0.1% TFA in MeCN/0.1% TFA in H2O 70/30, flow rate = 10 mL/min.
The logD7.4HPLC value was determined as previously reported by us utilizing an HPLC method originally described by Donovan and Pescatore[18]. […]

[2] = cited from earlier work

SI (selectivity index) (human COX-2) | IC50 (human COX-2) [µM] | IC50 (ovine COX-1) [µM] | chromatographic logD [1] | melting point [°C] | Compound | water solubility [2] [mg/mL]
>3.8 | 26.4 | > 100 | 2.49 | – | CCC(=O)NS(=O)(=O)c1ccc(-c2c(-c3ccc(Cl)cc3)c3cccc4c3n2CC4)cc1 [3c, N-({4-[5-(4-chlorophenyl)-1,2-dihydropyrrolo[3,2,1-hi]indol-4-yl]phenyl}sulfonyl)propionamide] | –
– | – | – | – | – | CCC(=O)NS(=O)(=O)c1ccc(-c2c(-c3ccccc3)noc2C)cc1 [Parecoxib sodium] | > 50
– | > 100 | > 100 | 2.05 | – | CCC(=O)NS(=O)(=O)c1ccc(-c2c(-c3ccccc3)c3cccc4c3n2CC4)cc1 [3a, N-{[4-(5-phenyl-1,2-dihydropyrrolo[3,2,1-hi]indol-4-yl)phenyl]sulfonyl}propionamide] | –
– | > 100 | > 100 | 2.31 | – | CCC(=O)NS(=O)(=O)c1ccc(-c2c(-c3ccc(C)cc3)c3cccc4c3n2CC4)cc1 [3b, N-({4-[5-(p-tolyl)-1,2-dihydropyrrolo[3,2,1-hi]indol-4-yl]phenyl}sulfonyl)propionamide] | –
>1124 | 0.089 | > 100 | 4.64 | 258 to 259 | NS(=O)(=O)c1ccc(-c2c(-c3ccc(F)cc3)c3cccc4ccn2c43)cc1 [2d, 1-(4-Fluorophenyl)-2-[4-(sulfamoyl)phenyl]pyrrolo[3,2,1-hi]indole] | –
– | > 100 | > 100 | 2.2 | – | CCC(=O)NS(=O)(=O)c1ccc(-c2c(-c3ccc(F)cc3)c3cccc4c3n2CC4)cc1 [3d, N-({4-[5-(4-fluorophenyl)-1,2-dihydropyrrolo[3,2,1-hi]indol-4-yl]phenyl}sulfonyl)propionamide] | –
– | – | – | 2.24 | – | CCC(=O)NS(=O)(=O)c1ccc(-c2c(-c3ccccc3)c3cccc4ccn2c43)cc1 [4a, N-{[4-(1-phenylpyrrolo[3,2,1-hi]indol-2-yl)phenyl]sulfonyl}propionamide] | –
>1087 | 0.092 | > 100 | 4.73 | 233 to 235 | Cc1ccc(-c2c(-c3ccc(S(N)(=O)=O)cc3)n3ccc4cccc2c43)cc1 [2b, 2-[4-(Sulfamoyl)phenyl]-1-(p-tolyl)pyrrolo[3,2,1-hi]indole] | –
>3.8 | 26.5 | > 100 | 2.3 | – | CCC(=O)NS(=O)(=O)c1ccc(-c2c(-c3ccc(F)cc3)c3cccc4ccn2c43)cc1 [4d, N-({4-[1-(4-fluorophenyl)pyrrolo[3,2,1-hi]indol-2-yl]phenyl}sulfonyl)propionamide] | –
237 | 0.253 | 59.9 | 4.56 | – | Cc1ccc(-c2c(-c3ccc(S(N)(=O)=O)cc3)n3c4c(cccc24)CC3)cc1 [1b, 4-[4-(Sulfamoyl)phenyl]-5-(p-tolyl)-1,2-dihydropyrrolo[3,2,1-hi]indole] | –
>1136 | 0.088 | > 100 | 4.89 | 270 to 273 | NS(=O)(=O)c1ccc(-c2c(-c3ccc(Cl)cc3)c3cccc4ccn2c43)cc1 [2c, 1-(4-Chlorophenyl)-2-[4-(sulfamoyl)phenyl]pyrrolo[3,2,1-hi]indole] | –
>2.9 | 33.9 | > 100 | 2.48 | – | CCC(=O)NS(=O)(=O)c1ccc(-c2c(-c3ccc(C)cc3)c3cccc4ccn2c43)cc1 [4b, N-({4-[1-(p-tolyl)pyrrolo[3,2,1-hi]indol-2-yl]phenyl}sulfonyl)propionamide] | –
355 | 0.107 | 38 | 4.44 | – | NS(=O)(=O)c1ccc(-c2c(-c3ccccc3)c3cccc4c3n2CC4)cc1 [1a, 5-Phenyl-4-[4-(sulfamoyl)phenyl]-1,2-dihydropyrrolo[3,2,1-hi]indole] | –
>9.1 | 11 | > 100 | 2.6 | – | CCC(=O)NS(=O)(=O)c1ccc(-c2c(-c3ccc(Cl)cc3)c3cccc4ccn2c43)cc1 [4c, N-({4-[1-(4-chlorophenyl)pyrrolo[3,2,1-hi]indol-2-yl]phenyl}sulfonyl)propionamide] | –
>1887 | 0.053 | > 100 | 4.59 | 218 to 220 | NS(=O)(=O)c1ccc(-c2c(-c3ccccc3)c3cccc4ccn2c43)cc1 [2a, 1-Phenyl-2-[4-(sulfamoyl)phenyl]pyrrolo[3,2,1-hi]indole] | –
85 | 0.092 | 7.8 | 4.53 | – | NS(=O)(=O)c1ccc(-c2c(-c3ccc(F)cc3)c3cccc4c3n2CC4)cc1 [1d, 5-(4-Fluorophenyl)-4-[4-(sulfamoyl)phenyl]-1,2-dihydropyrrolo[3,2,1-hi]indole] | –
144 | 0.106 | 15.3 | 4.9 | – | NS(=O)(=O)c1ccc(-c2c(-c3ccc(Cl)cc3)c3cccc4c3n2CC4)cc1 [1c, 5-(4-Chlorophenyl)-4-[4-(sulfamoyl)phenyl]-1,2-dihydropyrrolo[3,2,1-hi]indole] | –
